Blank lines part the entries; values can stand above or below the compound they belong to.
How the values were obtained:
[1] = system: Rats; test: Metabolic cage study of rats fed diet supplemented with R3-AND or R4-AND (Example 2); format: in vivo, rat; settings: for food intake / water intake / urine volume / urine osmolality: day 4, in diet (R4-ADN at 0.15% weight/weight); for food intake: vs control (FIG. 7A); for water intake: vs control (FIG. 7B); for urine volume: vs control (FIG. 7C); for urine osmolality: vs control (FIG. 7D)
[2] = system: Male Sprague Dawley rats; test: Metabolic cage study of rats fed diet containing R2-ADN or adenine (Example 1, Table 1); format: in vivo, rat; settings: for Urine osmolality, Average Baseline / Urine osmolality, Baseline Day 1 / Urine osmolality, Baseline Day 2: baseline before treatment; for Urine osmolality, Day 1: treatment day 1; for Urine osmolality, Day 2: treatment day 2; for Urine osmolality, Day 3: treatment day 3; for Urine osmolality, Day 4: treatment day 4; for Urine osmolality, Day 5: treatment day 5; for Urine osmolality, Day 6: treatment day 6
From the text: The effects of R2-ADN on these physiologic parameters are dose- and time-dependent.
In addition, the effects of adenine (ADN) were compared to those of R2-ADN on these physiologic parameters.
Male Sprague Dawley rats were placed in metabolic cages and fed powdered rodent chow with access to distilled water ad libitum. After adjustment, baseline data were collected for 2 days and then rats were randomly divided into different groups. […]

[3] = system: water channel aquaporin 2 (AQP2); settings: rat kidney collecting duct system, high dose; cited from earlier work
[4] = system: salt transporter NKCC2; settings: rat kidney medullary thick ascending limb, high dose; cited from earlier work
[5] = system: primary human hepatocytes; settings: in vitro; cited from earlier work
[6] = system: 45 strains of mice; settings: single oral dose; cited from earlier work
[7] = rats of the 0.15% in diet group
[8] = rats of the 0.20% in diet group
[9] = rats of the 0.25% in diet group
[10] = rats, 0.15% in diet, adenine vs R2-ADN

- food intake [1]: none of the measured parameters
SMILES: O=C(Nc1ncnc2nc[nH]c12)c1ccccc1 [R3-AND, N6-benzoyladenine]
- water intake [1]: none of the measured parameters
- urine volume [1]: none of the measured parameters
- urine osmolality [1]: none of the measured parameters

SMILES: Nc1ncnc2nc[nH]c12 [ADN, adenine]
- Urine osmolality, Average Baseline [2, 7]: 1890 mosm/kg H2O
- Urine osmolality, Baseline Day 1 [2, 7]: 1848 mosm/kg H2O
- Urine osmolality, Baseline Day 2 [2, 7]: 1933 mosm/kg H2O
- Urine osmolality, Average Baseline [2, 8]: 1619 mosm/kg H2O
- Urine osmolality, Baseline Day 1 [2, 8]: 1638 mosm/kg H2O
- Urine osmolality, Baseline Day 2 [2, 8]: 1599 mosm/kg H2O
- Urine osmolality, Average Baseline [2, 9]: 1529 mosm/kg H2O
- Urine osmolality, Baseline Day 1 [2, 9]: 1648 mosm/kg H2O
- Urine osmolality, Baseline Day 2 [2, 9]: 1410 mosm/kg H2O
- urine osmolality [2, 10]: no effect
- urine volume / daily water balance [2, 10]: no effect
- Urine osmolality, Day 1 ([2]; rats, 0.15% in diet): 1750 mosm/kg H2O
- Urine osmolality, Day 2 ([2]; rats, 0.15% in diet): 1752 mosm/kg H2O
- Urine osmolality, Day 3 ([2]; rats, 0.15% in diet): 1770 mosm/kg H2O
- Urine osmolality, Day 4 ([2]; rats, 0.15% in diet): 1671 mosm/kg H2O
- Urine osmolality, Day 5 ([2]; rats, 0.15% in diet): 1700 mosm/kg H2O
- Urine osmolality, Day 6 ([2]; rats, 0.15% in diet): 1738 mosm/kg H2O
- Urine osmolality, Day 1 ([2]; rats, 0.20% in diet): 1475 mosm/kg H2O
- Urine osmolality, Day 2 ([2]; rats, 0.20% in diet): 1371 mosm/kg H2O
- Urine osmolality, Day 3 ([2]; rats, 0.20% in diet): 1354 mosm/kg H2O
- Urine osmolality, Day 4 ([2]; rats, 0.20% in diet): 1296 mosm/kg H2O
- Urine osmolality, Day 5 ([2]; rats, 0.20% in diet): 1279 mosm/kg H2O
- Urine osmolality, Day 6 ([2]; rats, 0.20% in diet): 1386 mosm/kg H2O
- Urine osmolality, Day 1 ([2]; rats, 0.25% in diet): 1198 mosm/kg H2O
- Urine osmolality, Day 2 ([2]; rats, 0.25% in diet): 848 mosm/kg H2O
- Urine osmolality, Day 3 ([2]; rats, 0.25% in diet): 976 mosm/kg H2O
- Urine osmolality, Day 4 ([2]; rats, 0.25% in diet): 1019 mosm/kg H2O
- Urine osmolality, Day 5 ([2]; rats, 0.25% in diet): 938 mosm/kg H2O
- Urine osmolality, Day 6 ([2]; rats, 0.25% in diet): 956 mosm/kg H2O
- AQP2 gene expression and protein abundance [3]: decreasing the gene expression and protein abundance
- NKCC2 gene expression and protein abundance [4]: decreasing the gene expression and protein abundance

- food intake [1]: significant reduction
SMILES: CN(C)c1ncnc2nc[nH]c12 [R4-ADN, 6-(Dimethylamino) purine]
- potency relative to adenine in increasing water loss by the kidney [1]: more potent than adenine
- water intake [1]: significant increase
- urine volume [1]: significant increase
- urine osmolality [1]: sharp reduction

- food intake ([2]; rats, high dose (0.25%), day 7 of feeding): significant reduction
- food intake ([2]; rats, lower doses in diet (FIGS. 4A-4D)): did not significantly alter
SMILES: Nc1nc(Cl)nc2nc[nH]c12 [R2-ADN, 2-chloro-6-aminopurine]
- potency relative to adenine in effects on water handling / water loss by the kidney ([2]; rats): more potent than adenine
- Urine osmolality, Average Baseline [2, 7]: 1558 mosm/kg H2O
- Urine osmolality, Baseline Day 1 [2, 7]: 1614 mosm/kg H2O
- Urine osmolality, Baseline Day 2 [2, 7]: 1502 mosm/kg H2O
- water intake ([2]; rats, 0.075%, 0.15% or 0.25% in diet, 7 days, vs baseline and control, dose- and time-dependent (FIGS. 1A-1D)): significant increase
- urine volume ([2]; rats, 0.075%, 0.15% or 0.25% in diet, 7 days, vs baseline and control, dose- and time-dependent (FIGS. 2A-2D)): significant increase
- urine osmolality ([2]; rats, 0.075%, 0.15% or 0.25% in diet, 7 days, vs baseline or control, dose- and time-dependent (FIGS. 3A-3D)): sharp reduction
- urine osmolality [2, 10]: significantly impaired
- urine volume / daily water balance [2, 10]: significantly impaired
- Urine osmolality, Day 1 ([2]; rats, 0.15% in diet): 1085 mosm/kg H2O
- Urine osmolality, Day 2 ([2]; rats, 0.15% in diet): 625 mosm/kg H2O
- Urine osmolality, Day 3 ([2]; rats, 0.15% in diet): 720 mosm/kg H2O
- Urine osmolality, Day 4 ([2]; rats, 0.15% in diet): 649 mosm/kg H2O
- Urine osmolality, Day 5 ([2]; rats, 0.15% in diet): 657 mosm/kg H2O
- Urine osmolality, Day 6 ([2]; rats, 0.15% in diet): 508 mosm/kg H2O
- reduction in urine osmolality ([2]; rats, 0.15% in diet, within the second day of treatment): ~60%
- changes in body weight ([2]; rats, vs control group (FIGS. 5A-5D)): impacted the changes in body weight

SMILES: Cc1ccccc1C(=O)Nc1ccc(C(=O)N2CCCC(O)c3cc(Cl)ccc32)c(C)c1 (stereo not shown) [tolvaptan]
- hepatocyte toxicity [5]: causes mitochondrial-induced apoptosis and oxidative stress
- signs of liver injury mechanisms [6]: signs of mitochondrial dysfunction, increased oxidative stress, and activation of immune response
